Patent publication US12600931B2, “Microfluidic cell culture plate for air-liquid interface and 3D cultured tissue applications” (priority 2020, dated 2026)
“Also recorded” adds a separate entry of the source. Where a name gives a salt, the structure may show the parent alone. Read-outs that look alike come from different tables or passages of the source.

What was measured:
HCoV-NL63 = format: cell-based; conditions: 20 μM CM vs untreated/vehicle, 48 and 96 h p.i., particularly MOI=0.005, qualitative, scatter limits statistical significance
[1] = test system: HCoV-NL63 in Calu-3 cells; conditions: reported; cited from earlier work
[2] = test system: IAV in human primary bronchial epithelial cells; conditions: reported; cited from earlier work
A/WSN/33 strain of IAV [3] = format: cell-based, influenza A virus
A/WSN/33 strain of IAV [4] = format: cell-based, influenza A virus; remark: listed apart in the source
A/Hong Kong/8/68 H3N2 [5] = format: cell-based, influenza A virus
A/Hong Kong/8/68 H3N2 [6] = format: cell-based, influenza A virus; remark: listed apart in the source

SMILES	viral copy number (RT-qPCR, apical wash) (HCoV-NL63)	viral copy number (RT-qPCR, apical wash) (HCoV-NL63; listed as CM)	infection by HCoV-NL63 in Calu-3 cells [1]	infection by IAV in human primary bronchial epithelial cells [2]	effect of oseltamivir on barrier function (TEER) (A/WSN/33 strain of IAV [3])	viral titers (qRT-PCR) (A/WSN/33 strain of IAV [4])	influenza replication (viral copies, RT-qPCR) (A/Hong Kong/8/68 H3N2 [5])	viral copies in apical wash in response to oseltamivir dose (A/Hong Kong/8/68 H3N2 [5])	virus-induced disruption to barrier function and epithelial tight junction formation (A/Hong Kong/8/68 H3N2 [6])
CN(C)C(=O)COC(=O)Cc1ccc(OC(=O)c2ccc(NC(=N)N)cc2)cc1 [camostat mesylate, Camostat mesylate]	observed reduction in viral copies	reduces viral copy number	partially block infection	partially block infection	–	–	–	–	–
CCC(CC)O[C@@H]1C=C(C(=O)O)C[C@H](N)[C@H]1NC(C)=O [oseltamivir, Oseltamivir carboxylate]	–	–	–	–	protective effect on barrier function	reduction in viral titers	significantly reduced influenza replication	marked decrease in viral copies; also recorded: reduce viral copies	prevented virus-induced disruption to barrier function and epithelial tight junction formation
